From paper PMC5826917, “A small molecule inhibitor of Nicotinamide N-methyltransferase for the treatment of metabolic disorders” (Scientific Reports, 2018)

Legend:
[1] = tested on: Glycine Receptor (strychnine-sensitive); assay: Selectivity panel: glycine receptor; type: binding; conditions: 10 µM
[2] = in vivo; conditions: male, db/db (BKS.Cg- + Leprdb/ + Leprdb/OlaHsd), mouse, in vivo, JBSNF-000088 (μM)
Protocol: (§1) Samples for MNA were analyzed employing a fit-for-purpose LC-MS/MS method. PE-Sciex API-4000 triple quadrupole (PerkinElmerSciex Instruments, Boston, MA) mass spectrometer was employed for this analysis. Samples (5 µL) were injected onto Kinetex HILIC (50 × 4.6 mm, 2.6 µm; Phenomenex, Torrance, CA, USA) column connected to Shimadzu VP (Shimadzu, Japan) LC system. The gradient mobile phase mixture of 0.2% formic acid and acetonitrile was delivered at a flow rate of 0.45 ml min-1 into the mass spectrometer electrospray ionization (ESI) chamber. Quantitation was achieved by MS/MS detection in positive ion mode for MNA and internal standard (d4–MNA). Detection of the ions was performed in the multiple reaction monitoring (MRM) mode, monitoring the transition of the m/z 137 precursor ion to the m/z 92 product ion for MNA and m/z 141 precursor ion to the m/z 84 product ion for d4-MNA (internal standard).
(§2) A simple protein precipitation extraction method was followed for extraction of N-methylnicotinamide from plasma and various tissue homogenate samples. The tissue samples were homogenized with 1:3 proportions of phosphate buffer saline (PBS) and this homogenate was used for N-Methylnicotinamide determinations. To an aliquot of ~50 μL of plasma/ liver homogenate/ adipose tissue homogenate samples ~300 µl of acetonitrile containing IS (d4-MNA) solution was added, followed by vortex for ~3 minutes and centrifuged for 10 minutes at 14,000 rpm. The supernatant was separated and transferred to pre-labeled HPLC vials and analyzed by LC-MS/MS system.
(§3) Samples for methylated JBSNF-000088 were analyzed employing a fit-for-purpose LC-MS/MS method. PE-Sciex API-5500 triple quadrupole (PerkinElmerSciex Instruments, Boston, MA) mass spectrometer was employed for this analysis. Samples (2 µL) were injected onto Atlantis dC18 (50 × 4.6 mm, 3 µm; Waters, Milford, MA, USA) column connected to Shimadzu VP (Shimadzu, Japan) LC system. The gradient mobile phase mixture of 0.2% formic acid and acetonitrile was delivered at a flow rate of 0.9 mL min-1 into the mass spectrometer electrospray ionization (ESI) chamber. Quantitation was achieved by MS/MS detection in positive ion mode for methylated JBSNF-000088 and internal standard (Tolbutamide). Detection of the ions was performed in the multiple reaction monitoring (MRM) mode, monitoring the transition of the m/z 168 precursor ion to the m/z 128.8, product ion for MNA and m/z 271 precursor ion to the m/z 91 product ion for tolbutamide (internal standard).
(§4) Male C57BL6/N (Vivo Bio Tech Ltd, India), ob/ob (B6.V-Lepob/OlaHsd) and its lean control (Envigo laboratories Inc, USA) and db/db (BKS.Cg- + Leprdb/ + Leprdb/OlaHsd) and its lean control (Envigo laboratories Inc, USA) were housed in individually ventilated cages (n = 5/cage) under standard laboratory conditions. The study room environment was maintained at a temperature of 21–24 °C and, relative humidity at 40–70%. The animal rooms were maintained under 12 h light and dark cycle. Animals were provided with ad libitum access to water and food (except where noted otherwise, e.g. during fasting prior for glucose tolerance tests, fasting prior to terminal sacrifice). Animals were acclimatized for 1 week before initiation of studies. For Diet induced obesity (DIO) mice study, C57BL6/N mice were maintained on rodents chow diet (Teklad; Harlan) or HFD (60% Kcal; Research diet) for 14 weeks before study initiation and throughout the study period. ob/ob and db/db mice and their lean controls were maintained on rodents chow diet (Teklad; Harlan). All the experiments were approved by Institutional Animal Ethics Committee (IAEC) of Jubilant Biosys Ltd, India.
(§5) Lean control + Vehicle and HFD + Vehicle Control groups (G1 and G2) mice were administered with vehicle.

[3] = tested on: db/db mice; assay: Chronic efficacy study in db/db mice; conditions: db/db mice
Protocol: as §1, §2, §3, §4, §5

[4] = 0.5 h
[5] = in vitro; conditions: mouse, microsomes, Metabolic stability mouse microsomes (% remaining)
[6] = biological target: T1, human NNMT (hNNMT) (Homo sapiens, UniProt P40261); assay: Fluorescence based NNMT enzymatic assay (human); conditions: fluorescence based biochemical assay
T1 construct: The full length NNMT proteins (1–264 amino acids) of human & mouse; 6 × His tag (N); TEV cleavage site (ENLYFQG) (N); made in house; host or cells: E. coli Rosetta2(DE3)pLysS
T1 sequence (P40261 whole entry, the tested form may be a part): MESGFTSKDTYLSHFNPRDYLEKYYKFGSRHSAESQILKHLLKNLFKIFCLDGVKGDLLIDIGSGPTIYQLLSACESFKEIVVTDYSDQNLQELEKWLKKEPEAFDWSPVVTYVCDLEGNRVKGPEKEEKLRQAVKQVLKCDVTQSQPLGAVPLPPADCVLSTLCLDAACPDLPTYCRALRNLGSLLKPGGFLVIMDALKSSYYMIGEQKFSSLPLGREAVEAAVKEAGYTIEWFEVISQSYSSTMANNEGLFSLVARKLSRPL
Protocol: NNMT activity was measured with the fluorescence enzymatic assay[22],[23]. MNA formed in the NNMT reaction reacts with acetophenone in the presence of KOH and formic acid and forms a fluorescent product 2, 7- naphthyridine. JBSNF-000088 was screened using human, mouse and monkey NNMT enzymes. Different concentrations of inhibitors were preincubated along with the enzyme for 30 minutes at room temperature. Reaction was initiated by addition of SAM and nicotinamide mixture (7 µM, 20 µM, 8 µM SAM and 6 µM, 20 µM, 9 µM nicotinamide for human, mouse and monkey NNMT assays respectively) for 60 minutes at 37 °C. The final assay reaction mixture contained a buffer of 100 mM Tris Hcl pH 7.5, 0.04% BSA, 2 mM dithiothreitol and 1% DMSO. At the end of the incubation, the reaction was stopped by the addition of ethanol: acetophenone mix (75% ethanol: 25% acetophenone) and 5 M potassium hydroxide prepared with 50% ethanol. The reaction was incubated for 15 minutes following which 100 µL of 60% formic acid was added. […] The fluorescent product 2, 7- naphthyridine was measured using a Tecan reader with excitation at 375 nm and emission at 430 nm. The IC50 values were determined by fitting the inhibition curves (percent inhibition versus inhibitor concentration) using a four parametric sigmoidal dose response using GraphPad Prism software.

[7] = biological target: Adenosine Receptor 1 (ADORA1) (Homo sapiens, UniProt P30542); assay: Selectivity panel: ADORA1; type: cell-based
Sequence of Adenosine Receptor 1 (ADORA1) (P30542 whole entry): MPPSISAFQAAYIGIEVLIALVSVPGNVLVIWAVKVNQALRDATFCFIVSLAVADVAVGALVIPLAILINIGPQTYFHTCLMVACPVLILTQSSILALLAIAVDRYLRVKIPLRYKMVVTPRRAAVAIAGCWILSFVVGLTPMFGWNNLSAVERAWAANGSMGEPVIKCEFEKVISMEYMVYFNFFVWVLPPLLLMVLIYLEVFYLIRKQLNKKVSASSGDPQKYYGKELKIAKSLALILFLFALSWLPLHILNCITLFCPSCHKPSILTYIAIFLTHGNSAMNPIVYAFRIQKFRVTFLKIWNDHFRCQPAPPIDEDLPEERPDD

[8] = biological target: Nicotinic AChR alpha4 beta2 (nAChRa4b2) (Homo sapiens, UniProt P17787+P43681); assay: Selectivity panel: nAChRa4b2; type: binding; conditions: read-out: I% (antagonistic or inhibitory), nAChRa4b2
Sequence of Nicotinic AChR alpha4 beta2 (nAChRa4b2) (P43681 29-627 limits assumed): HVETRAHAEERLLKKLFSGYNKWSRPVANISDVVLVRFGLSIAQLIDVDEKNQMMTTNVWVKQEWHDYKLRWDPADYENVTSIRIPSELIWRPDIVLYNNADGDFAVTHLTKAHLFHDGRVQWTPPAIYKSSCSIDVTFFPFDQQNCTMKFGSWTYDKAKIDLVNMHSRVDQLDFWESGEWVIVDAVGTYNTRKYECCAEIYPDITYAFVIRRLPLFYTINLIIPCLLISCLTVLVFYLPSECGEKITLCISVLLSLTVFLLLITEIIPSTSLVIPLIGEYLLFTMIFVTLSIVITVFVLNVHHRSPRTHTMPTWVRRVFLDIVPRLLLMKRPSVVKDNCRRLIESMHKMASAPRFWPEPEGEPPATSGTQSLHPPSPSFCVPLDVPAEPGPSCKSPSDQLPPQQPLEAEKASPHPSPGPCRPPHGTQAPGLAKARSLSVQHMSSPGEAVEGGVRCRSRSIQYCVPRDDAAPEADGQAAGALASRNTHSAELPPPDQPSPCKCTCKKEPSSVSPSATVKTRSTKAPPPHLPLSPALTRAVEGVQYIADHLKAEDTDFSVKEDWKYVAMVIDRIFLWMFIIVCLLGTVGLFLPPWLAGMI
Sequence of Nicotinic AChR alpha4 beta2 (nAChRa4b2) (P17787 26-502): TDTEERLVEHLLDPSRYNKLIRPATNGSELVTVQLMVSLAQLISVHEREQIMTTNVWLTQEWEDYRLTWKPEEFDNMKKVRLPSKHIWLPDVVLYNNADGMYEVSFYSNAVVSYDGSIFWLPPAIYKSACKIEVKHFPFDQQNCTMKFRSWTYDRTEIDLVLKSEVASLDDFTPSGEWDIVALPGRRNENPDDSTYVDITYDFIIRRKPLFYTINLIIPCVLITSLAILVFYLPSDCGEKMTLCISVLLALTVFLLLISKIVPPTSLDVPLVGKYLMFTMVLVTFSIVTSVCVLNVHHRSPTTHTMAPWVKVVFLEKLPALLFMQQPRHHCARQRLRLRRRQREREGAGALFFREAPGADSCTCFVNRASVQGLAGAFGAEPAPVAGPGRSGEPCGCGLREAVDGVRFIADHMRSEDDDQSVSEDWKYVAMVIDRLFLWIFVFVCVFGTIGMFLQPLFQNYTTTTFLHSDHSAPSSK
Protocol: Supplement 41598_2018_22081_MOESM1_ESM.docx, table 2: Supplementary table 2: Selectivity profile of JBSNF-000088 (at 10 µM) vs a panel of 34 receptors, channels and enzymes. | column: I% (antagonistic or inhibitory)

[9] = biological target: Niacin receptor (NAR1) (Homo sapiens, UniProt Q8TDS4); assay: Selectivity panel: NAR1; type: cell-based; conditions: 10 µM
Sequence of Niacin receptor (NAR1) (Q8TDS4 whole entry): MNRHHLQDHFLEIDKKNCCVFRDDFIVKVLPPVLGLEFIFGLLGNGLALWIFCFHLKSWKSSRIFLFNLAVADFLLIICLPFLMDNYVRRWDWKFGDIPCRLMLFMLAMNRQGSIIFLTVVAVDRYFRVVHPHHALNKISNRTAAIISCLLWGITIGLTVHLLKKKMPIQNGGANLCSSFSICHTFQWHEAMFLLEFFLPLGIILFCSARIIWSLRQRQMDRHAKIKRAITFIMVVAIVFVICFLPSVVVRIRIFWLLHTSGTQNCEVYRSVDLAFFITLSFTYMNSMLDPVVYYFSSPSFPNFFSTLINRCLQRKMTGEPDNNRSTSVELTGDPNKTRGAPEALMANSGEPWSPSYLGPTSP

## COc1ccc(C(N)=O)cn1 [JBSNF-000088, 6-methoxynicotinamide]
[1]
  I% (antagonistic or inhibitory), Glycine Receptor (strychnine-sensitive): -7%
[2]; plasma
  concentration at 1 h: 275 ± 39 µM
[2]; subcutaneous fat
  concentration at 1 h: 6.94 ± 1.52 µM
[2]; visceral fat
  concentration at 1 h: 7.14 ± 2.18 µM
[3]
  HOMA-IR: no change
[3]; 50 mg kg^−1 bid, four weeks, vs vehicle
  body weight gain: gained comparable weight
[3]; 30 days, p < 0.0001 vs vehicle control
  MNA levels in liver and visceral WAT and s/c fat: statistically significant reduction
[3]; day 21, p < 0.001 vs vehicle control
  fed blood glucose: moderate but statistically significant reduction
[3]; day 26, not statistically significant
  glucose tolerance: trend towards improvement
[3]; vs vehicle
  Fed insulin levels on days 7, 14 and 21 and fasting insulin levels on day 28: not different
  cumulative food intake: comparable
[3]; vs vehicle control
  AUC blood glucose (OGTT): Slightly lower
[4]
  Metabolic stability mouse microsomes (% remaining): 79%
[5]
  remaining at 0.5 h: > 70%
[6]
  IC50: 1800 nM
[7]; 10 µM
  E% (agonistic), ADORA1: -3%
[7]; read-out: I% (antagonistic or inhibitory), ADORA1
  inhibition at 10 µM: -1%
[8]
  inhibition at 10 µM: 5%
[9]
  E% (agonistic), NAR1: -3%
